Laboratory results published in article PMC12748989 (Nature Communications, 2025).

Experiments:
PBMC = conditions: 12.5 µM

Compound	Average (percentage cell inhibition), Dmastoparan MDA-MB231 12.5uM (MDA-MB-231 cells) [%]	Average (percentage cell inhibition), Mastoparan PBMC (PBMC) [%]
CC[C@H](C)[C@H](N)C(=O)N[C@@H](CC(N)=O)C(=O)N[C@@H](CC(C)C)C(=O)N[C@@H](CCCCN)C(=O)N[C@@H](C)C(=O)N[C@@H](CC(C)C)C(=O)N[C@@H](C)C(=O)N[C@@H](C)C(=O)N[C@@H](CO)C(=O)N[C@@H](C)C(=O)N[C@@H](CCCCN)C(=O)N[C@@H](CCCCN)C(=O)N[C@H](C(=O)N[C@@H](CC(C)C)C(N)=O)[C@@H](C)CC [S9]	27.2293	-4.8979
CC[C@H](C)[C@H](NC(=O)[C@H](CCCCN)NC(=O)[C@H](CCCCN)NC(=O)[C@H](C)NC(=O)[C@H](CC(C)C)NC(=O)[C@H](C)NC(=O)[C@H](C)NC(=O)[C@H](CC(C)C)NC(=O)[C@H](C)NC(=O)[C@H](CCCCN)NC(=O)[C@H](CC(C)C)NC(=O)[C@H](CC(N)=O)NC(=O)[C@@H](N)CCCCN)C(=O)N[C@@H](CC(C)C)C(N)=O [K1]	35.9182	1.227
CC[C@H](C)[C@H](N)C(=O)N[C@@H](CC(N)=O)C(=O)N[C@@H](CC(C)C)C(=O)N[C@@H](CCCCN)C(=O)N[C@@H](C)C(=O)N[C@@H](CC(C)C)C(=O)N[C@@H](C)C(=O)N[C@@H](C)C(=O)N[C@@H](CC(C)C)C(=O)N[C@@H](C)C(=O)N[C@@H](CCCCN)C(=O)N[C@@H](CC(N)=O)C(=O)N[C@H](C(=O)N[C@@H](CC(C)C)C(N)=O)[C@@H](C)CC [N12]	52.6491	5.917
CC[C@H](C)[C@H](N)C(=O)NCC(=O)N[C@@H](CC(C)C)C(=O)N[C@@H](CCCCN)C(=O)N[C@@H](C)C(=O)N[C@@H](CC(C)C)C(=O)N[C@@H](C)C(=O)N[C@@H](C)C(=O)N[C@@H](CC(C)C)C(=O)N[C@@H](C)C(=O)N[C@@H](CCCCN)C(=O)N[C@@H](CCCCN)C(=O)N[C@H](C(=O)N[C@@H](CC(C)C)C(N)=O)[C@@H](C)CC [G2]	71.0378	15.6884
CC[C@H](C)[C@H](N)C(=O)N[C@@H](CCCNC(=N)N)C(=O)N[C@@H](CC(C)C)C(=O)N[C@@H](CCCCN)C(=O)N[C@@H](C)C(=O)N[C@@H](CC(C)C)C(=O)N[C@@H](C)C(=O)N[C@@H](C)C(=O)N[C@@H](CC(C)C)C(=O)N[C@@H](C)C(=O)N[C@@H](CCCCN)C(=O)N[C@@H](CCCCN)C(=O)N[C@H](C(=O)N[C@@H](CC(C)C)C(N)=O)[C@@H](C)CC [R2]	40.227	6.823
CC[C@H](C)[C@H](N)C(=O)N[C@@H](CC(N)=O)C(=O)N[C@@H](CC(C)C)C(=O)N[C@@H](CCCCN)C(=O)N[C@@H](C)C(=O)N[C@@H](CCC(=O)O)C(=O)N[C@@H](C)C(=O)N[C@@H](C)C(=O)N[C@@H](CC(C)C)C(=O)N[C@@H](C)C(=O)N[C@@H](CCCCN)C(=O)N[C@@H](CCCCN)C(=O)N[C@H](C(=O)N[C@@H](CC(C)C)C(N)=O)[C@@H](C)CC [E6]	39.2363	3.211
CC[C@H](C)[C@H](N)C(=O)N[C@@H](CCC(N)=O)C(=O)N[C@@H](CC(C)C)C(=O)N[C@@H](CCCCN)C(=O)N[C@@H](C)C(=O)N[C@@H](CC(C)C)C(=O)N[C@@H](C)C(=O)N[C@@H](C)C(=O)N[C@@H](CC(C)C)C(=O)N[C@@H](C)C(=O)N[C@@H](CCCCN)C(=O)N[C@@H](CCCCN)C(=O)N[C@H](C(=O)N[C@@H](CC(C)C)C(N)=O)[C@@H](C)CC [Q2]	33.3572	13.2802
CC[C@H](C)[C@H](NC(=O)[C@H](CCCCN)NC(=O)[C@H](CCCCN)NC(=O)[C@H](C)NC(=O)[C@H](CC(C)C)NC(=O)[C@H](C)NC(=O)[C@H](C)NC(=O)[C@H](CC(C)C)NC(=O)[C@H](C)NC(=O)[C@H](CCCCN)NC(=O)[C@H](CC(C)C)NC(=O)[C@H](CC(N)=O)NC(=O)[C@@H](N)CCC(=O)O)C(=O)N[C@@H](CC(C)C)C(N)=O [E1]	25.5598	8.369
